Measured values reported in PMC10977697 (PLOS ONE, 2024).
Like-named read-outs stand apart in the source and are kept apart here. Where no end group is shown, it is not given here.

Experiments:
[1] = system: HtrA1; type: binding, human
[2] = system: Lgr5ECD-Fc; type: binding, human; settings: ratio of signal for target protein over BSA background
[3] = ratio of signal for target protein over BSA background

Row | Molecule | S/N [1, 3] | S/N [2] | other results
1 | CC[C@H](C)[C@@H]1NC(=O)[C@H](CO)NC(=O)[C@@H]2CSSC[C@@H]3NC(=O)[C@H](CO)NC(=O)CNC(=O)[C@H]([C@@H](C)O)NC(=O)[C@H](CSSC[C@H](N)C(=O)N[C@@H](CCCCN)C(=O)NCC(=O)N[C@@H](CCCCN)C(=O)NCC(=O)N[C@@H](C)C(=O)N[C@@H](CCCCN)C(=O)N2)NC(=O)[C@H](CSSC[C@@H](C(=O)O)NC(=O)[C@H](CCCCN)NC(=O)CNC(=O)[C@H](CO)NC(=O)[C@H](CCCNC(=N)N)NC3=O)NC(=O)[C@H](C(C)C)NC(=O)[C@H](CCCCN)NC(=O)[C@H](Cc2c[nH]c3ccccc23)NC(=O)[C@@H]2CCCN2C(=O)[C@H](Cc2ccc(O)cc2)NC(=O)[C@H](C(C)C)NC(=O)[C@H](CO)NC(=O)[C@H](Cc2c[nH]c3ccccc23)NC(=O)[C@H](CCC(N)=O)NC1=O [HtrA1_CnTx83] |  |  | S/N [1]: 16.1
2 | AFDCLGQCGRCDFHKLQCVAWLMYSFVRPYCNSSCTR (also: bicyclic or more (positions not given here)) [HtrA1 AVR9 53] | 7.3 |  | 
3 | AFDCLGQCGRCDFHKLQCVFWHWYYCNSSCTR (also: bicyclic or more (positions not given here)) [HtrA1 AVR9 84] | 8.5 |  | 
4 | AFDCLGQCGRCDFHKLQCVIQQMRWKAQPDGYCNSSCTR (also: bicyclic or more (positions not given here)) [HtrA1 AVR9 37] | 9.7 |  | 
5 | AFDCLGQCGRCDFHKLQCVKQVMATLWSMYCNSSCTR (also: bicyclic or more (positions not given here)) [HtrA1 AVR9 39] | 9.9 |  | 
6 | AFDCLGQCGRCDFHKLQCVLWHQWVKWYVYCNSSCTR (also: bicyclic or more (positions not given here)) [HtrA1 AVR9 68] | 8.9 |  | 
7 | AFDCLGQCGRCDFHKLQCVLWTVANMQHYYCNSSCTR (also: bicyclic or more (positions not given here)) [HtrA1 AVR9 85] | 6.5 |  | 
8 | AFDCLGQCGRCDFHKLQCVMMRLLARWVFKFYCNSSCTR (also: bicyclic or more (positions not given here)) [HtrA1 AVR9 52] | 13.2 |  | 
9 | AFDCLGQCGRCDFHKLQCVQYAYRWLMRQYCNSSCTR (also: bicyclic or more (positions not given here)) [HtrA1 AVR9 55] | 4.1 |  | 
10 | AFDCLGQCGRCDFHKLQCVRWSIDAIIIWYCNSSCTR (also: bicyclic or more (positions not given here)) [HtrA1 AVR9 42] | 12.1 |  | 
11 | AFDCLGQCGRCDFHKLQCVRYLIKYSIMWMTYCNSSCTR (also: bicyclic or more (positions not given here)) [HtrA1 AVR9 26] | 15.1 |  | 
12 | AFDCLGQCGRCDFHKLQCVVFQIIYQAVNYCNSSCTR (also: bicyclic or more (positions not given here)) [HtrA1 AVR9 88] | 9.5 |  | 
13 | AFDCLGQCGRCDFHKLQCVVTIIRKMMLWYCNSSCTR (also: bicyclic or more (positions not given here)) [HtrA1 AVR9 31] | 19.0 |  | 
14 | AFDCLGQCGRCDFHKLQCVWRWMHQYCNSSCTR (also: bicyclic or more (positions not given here)) [HtrA1 AVR9 2] | 22.7 |  | 
15 | AFDCLGQCGRCDFHKLQCVWRYIQKMRYCNSSCTR (also: bicyclic or more (positions not given here)) [HtrA1 AVR9 89] | 14.9 |  | 
16 | AFDCLGQCGRCDFHKLQCVWSIYVKFWYCNSSCTR (also: bicyclic or more (positions not given here)) [HtrA1 AVR9 4] | 21.2 |  | 
17 | AFDCLGQCGRCDFHKLQCVYRQFWMVKFGWQPGYCNSSCTR (also: bicyclic or more (positions not given here)) [HtrA1 AVR9 10] | 15.2 |  | 
18 | GCHSVHSMCKQDSDCLAGCVCYWFYGCG (also: bicyclic or more (positions not given here)) [HtrA1 EET I-II 1] | 11.8 |  | 
19 | GCPRILMRCKQDSDCLAGCVCWMPVLCV (also: bicyclic or more (positions not given here)) [HtrA1 EET I-II 19] | 3.1 |  | 
20 | GCREMLGNWVCKRFRLSSWLCLWSNGFCGT [HtrA1 EET I-II 41] | 11.8 |  | 
21 | GCWVNFWMCKQDSDCLAGCVCRVLDVCG (also: bicyclic or more (positions not given here)) [Lgr5ECD-Fc EET I-II 26] |  | 11.7 | 
22 | GCWWMNVRTRQGCKQDSDCLAGCVCGPNGFCG (also: bicyclic or more (positions not given here)) [HtrA1 EET I-II 25] | 2.8 |  | 
23 | GCYHGYWYITWFCKQDSDCLAGCVCSQDEQCG (also: bicyclic or more (positions not given here)) [Lgr5ECD-Fc EET I-II 21] |  | 5.1 | 
24 | GPAHSTYGRCGGIDYYGPTVCASGTTCLVLWPALSWCLPRSF (also: bicyclic or more (positions not given here)) [Lgr5ECD-Fc CBD 17] |  | 26.2 | 
25 | GPTQSAFGPCGGIGYSGHTVCASGTTCQVLSPNVSHCLPGAS (also: bicyclic or more (positions not given here)) [Lgr5ECD-Fc CBD 16] |  | 6.6 | 
26 | GPTQSAFGPCGGIGYSGPTVCASGTTCQVLSPDVSQCLPGAS (also: bicyclic or more (positions not given here)) [Lgr5ECD-Fc CBD 6] |  | 36.0 | 

Row | Molecule | S/N [1, 3] | S/N [2] | other results
27 | GPTQSAFGPCGGIGYSGPTVCASGTTCQVLSPDVSRCLPGAS (also: bicyclic or more (positions not given here)) [Lgr5ECD-Fc CBD 8] |  | 30.3 | 
28 | GPTQSAYGQCGGIGYSGPTVCASGTTCQVLWPQVSWCLPGAS (also: bicyclic or more (positions not given here)) [Lgr5ECD-Fc CBD 13] |  | 14.2 | 
29 | GPTQSHYGLCGGIGYSGPTVCASGTTCQVLSPEFSQCLPGAS (also: bicyclic or more (positions not given here)) [Lgr5ECD-Fc CBD 10] |  | 23.6 | 
30 | GPTQSHYGQCGGRGYFGTMYCASGTTCQFKWRRDSQCLPGAS (also: bicyclic or more (positions not given here)) [HtrA1 CBD 74] | 22.8 |  | 
31 | GPTQSHYGQCGGSGYWGLFMCASGTTCQSVTMTVSQCLPGAS (also: bicyclic or more (positions not given here)) [HtrA1 CBD 54] | 5.6 |  | 
32 | GPTQSHYGQCGGWGYTGWYQCASGTTCQGPRSRLSQCLPGAS (also: bicyclic or more (positions not given here)) [HtrA1_CBDwt46] | 25.9 |  | 
33 | GPTQSLFGMCGGIGYSGPTVCASGTTCQVLDPTTSQCLPGAS (also: bicyclic or more (positions not given here)) [Lgr5ECD-Fc CBD 2] |  | 42.7 | 
34 | GPTQSOYGMCGGIGYSGPTVCASGTTCQVLDPTTSQCLPGAS (bicyclic or more) [Lgr5ECD-Fc CBD 18] |  | 34.5 | 
35 | GPTQSPGGICGGIGYSGPTVCASGTTCQVLSPEYSQCLPGAS (also: bicyclic or more (positions not given here)) [Lgr5ECD-Fc CBD 7] |  | 34.9 | 
36 | GPTQSQFGMCGGIGYSGPTVCASGTTCQVLDPTTSQCLPGAS (also: bicyclic or more (positions not given here)) [Lgr5ECD-Fc CBD 4] |  | 40.8 | 
37 | GPTQSQYGICGGIGYSGPTVCASGTTCQVLSPDWSQCLPGAS (also: bicyclic or more (positions not given here)) [Lgr5ECD-Fc CBD 9] |  | 23.7 | 
38 | GPTQSQYGICGGIGYSGPTVCASGTTCQVLSPEFSQCLPGAS (also: bicyclic or more (positions not given here)) [Lgr5ECD-Fc CBD 14] |  | 12.1 | 
39 | GPTQSQYGLCGGIGYSGPTVCASGTTCQVLDPTTSQCLPGAS (also: bicyclic or more (positions not given here)) [Lgr5ECD-Fc CBD 15] |  | 8.9 | 
40 | GPTQSTWGQCGGIGYSGPTVCASGTTCQVLWPTLSWCLPGAS (also: bicyclic or more (positions not given here)) [Lgr5ECD-Fc CBD 5] |  | 38.3 | 
41 | GPTQSTYGQCGGIGYSGPTVCASGTTCQVLWPALSWCLPGAS (also: bicyclic or more (positions not given here)) [Lgr5ECD-Fc CBD 1] |  | 43.0 | 
42 | GPTQSVYGICGGIGYSGPTVCASGTTCQVLDPTTSQCLPGAS (also: bicyclic or more (positions not given here)) [Lgr5ECD-Fc CBD 12] |  | 18.9 | 
43 | GPTQSVYGICGGIGYSGPTVCASGTTCQVLSPEFSQCLPGAS (also: bicyclic or more (positions not given here)) [Lgr5ECD-Fc CBD 11] |  | 23.1 | 
44 | GPTQSVYGMCGGIGYSGPTVCASGTTCQVLDPTTSQCLPGAS (also: bicyclic or more (positions not given here)) [Lgr5ECD-Fc CBD 3] |  | 41.0 | 
45 | WIPCISAALGCSCKNKVCYALNNMVQFLYIHHCGESCV (also: bicyclic or more (positions not given here)) [HtrA1 CirculinA 66] | 12.7 |  | 
46 | WIPCISAALGCSCKNKVCYFFHKLMYYMCGESCV (also: bicyclic or more (positions not given here)) [HtrA1 CirculinA 24] | 17.7 |  | 
47 | WIPCISAALGCSCKNKVCYFMTQHIRWFVKCGESCV (also: bicyclic or more (positions not given here)) [HtrA1 CirculinA 91] | 26.8 |  | 
48 | WIPCISAALGCSCKNKVCYHFQHWVQMNKCGESCV (also: bicyclic or more (positions not given here)) [HtrA1 CirculinA 82] | 10.4 |  | 
49 | WIPCISAALGCSCKNKVCYILNRSCGESCV (also: bicyclic or more (positions not given here)) [HtrA1 CirculinA 40] | 8.0 |  | 
50 | WIPCISAALGCSCKNKVCYIVILTTPCGESCV (also: bicyclic or more (positions not given here)) [HtrA1 CirculinA 73] | 8.4 |  | 
51 | WIPCISAALGCSCKNKVCYMYYYIMGQNLMNTCGESCV (also: bicyclic or more (positions not given here)) [HtrA1 CirculinA 48] | 24.1 |  | 
